Legend:
[1] = system: PBMCs from TG allergic donors; assay: IL-5 ELISPOT of TG extract-expanded PBMCs from TG allergic donors (peptide pools, single peptides, TG extract); format: cell-based, human
Procedure: Each donor was recruited following Institutional Review Board approval (Federal Wide Assurance number 00000032) and informed consent and assigned a study identification number. Donors were tested for allergen reactivity by skin prick tests to extracts from 32 common allergens. TG allergic donors were identified as having a skin reaction with a wheal of 5 mm in diameter to TG and a clinical history consistent with seasonal grass pollen allergy. Donors that had received specific immunotherapy were excluded. Non-allergic donors were identified as having negative skin prick tests to all allergens and no clinical history of allergy.
PBMCs were isolated by density gradient centrifugation from one unit of blood (˜450 ml) and cryo-preserved as described previously (12). For in vitro expansions, PBMCs were thawed and cultured in RPMI 1640 (Ω Scientific, Tarzana, Calif.) supplemented with 5% human AB serum (Cellgro, Herndon, Va.) at a density of 2×10^6 cells/ml in 24-well plates (BD Biosciences, San Jose, Calif.) and stimulated with TG pollen extract ([…]) (Greer, Lenoir, N.C.). Cells were kept at 37° C., 5% CO2 and additional IL-2 and IL-7 (10 U/ml, eBioscience, San Diego, Calif.) was added every 3 d after initial antigenic stimulation. On day 14, cells were harvested and screened for reactivity against TG-specific peptide pools (16-25 peptides/pool, averaging 20 peptides/pool). On day 17, peptides from positive pools were tested individually to identify the reactive epitopes.
The production of IL-5 from cultured PBMCs in response to antigen stimulation was measured by ELISPOT as described previously (12). Briefly, 1×10^5 cells/well were incubated with peptide, peptide pool or TG extract (10 μg/ml, 5 μg/ml and 50 μg/ml, respectively). After 24 h, cells were removed and plates were incubated with 2 μg/ml biotinylated anti-human IL-5 Ab (Mabtech) at 37° C. After 2 h, plates were washed and avidin-peroxidase-complex was added (Vector Laboratories, Burlingame, Calif.) for 1 h at RT. Peroxidase-conjugated spots were developed with 3-amino-9-ethylcarvazole solution (Sigma-Aldrich, St. Louis, Mo.). Criteria for peptide pool positivity were 100 SFCs/106 PBMCs, p 0.05, and a stimulation index (SI) 2. Criteria for individual peptides were the same except a minimum of 20 SFCs was counted as positive.

[2] = system: PBMCs from TG allergic donors; assay: IFNg ELISPOT of TG extract-expanded PBMCs from TG allergic donors (single peptides); format: cell-based, human; conditions: T cell recognition in TG allergic patients; for Total response IFNg Events: number of response events
human IgE = assay: 2D gel immunoblot of TG extract with serum pool from 8 TG-allergic donors, IgE reactivity; format: binding; conditions: for Antibody reactivity IgE/IgG: IgE: IgE reactivity (E+/E−) of the source antigen of the peptide; for Antibody reactvity IgE/IgG: IgE: E− = not IgE reactive
Procedure: (§1) 2D DIGE (Difference Gel Electrophoresis) analysis. The complete 2D DIGE analysis was performed by Applied Biomics (Hayward, Calif., US). Briefly, TG extract was run on two 2D gels (3-10 pH range, 12% SDS-acrylamide gel), one was Coomassie blue stained, the other was blotted onto a nitrocellulose membrane. The membrane was then incubated with 5% dried milk in PBS/0.05% Tween to block non-specific binding and subsequently probed with a serum pool from 8 TG-allergic individuals at a dilution of 1:250. IgE and IgG binding was detected using goat anti-human IgE and rabbit anti-human IgG (Sigma-Aldrich, St. Louis, Mo.) and visualized using Cy2-conjugated donkey anti-goat IgG and Cy5-conjugated donkey […] IgG antibodies (Biotium, Hayward, Calif.).
(§2) Mass spectral protein identification was performed by Applied Biomics (Hayward, Calif., US). Briefly, spots of interest were selected from the 2D blot and the corresponding spots were identified on the stained SDS gel and cut out, washed several times to remove staining dye and other inhibitory chemicals. The spots were then dried to absorb maximum digestion buffer. Dried 2D gel spots were rehydrated in digestion buffer containing trypsin. Proteins were digested in-gel at 37° C. and then extracted from the gel with TFA extraction buffer. Subsequently the peptides were desalted using C-18 Zip-tips (Millipore) and mixed with CHCA matrix (alpha-cyano-4-hydroxycinnamic acid) and spotted into wells of a MALDI plate. Mass spectra of the peptides in each sample were obtained using an Applied Biosystems Proteomics Analyzer. The spectra were compared to the amino acid sequences encoded by putative ORFs from the de novo assembled TG pollen transcripts. […] The amino acid sequences encoded by these ORFs were clustered using a custom script at a sequence similarity threshold of 90% to group together highly similar protein sequences. These sequences are encoded by different transcripts from the current assembly, which could arise from splice variants, allelic variation between cells of TG pollen, and from gene families with multiple members. Amino acid sequences that form one cluster are assigned one putative protein ID (Table 1).

[3] = system: PBMCs from TG allergic donors; assay: IFNg ELISPOT of TG extract-expanded PBMCs from TG allergic donors (single peptides); format: cell-based, human; conditions: for Total response IFNg Events: number of positive response events
human IgG = assay: 2D gel immunoblot of TG extract with serum pool from 8 TG-allergic donors, IgG reactivity; format: binding; conditions: for Antibody reactivity IgE/IgG: IgG: IgG reactivity (G+/G−) of the source antigen of the peptide
Procedure: as §1, §2

[4] = system: PBMCs from TG allergic donors; assay: IFNg ELISPOT of TG extract-expanded PBMCs from TG allergic donors (single peptides); format: cell-based, human; conditions: T cell recognition in TG allergic patients; for Total response IFNg Events: number of positive responses
[5] = system: PBMCs from TG allergic donors; assay: as above; format: cell-based, human; conditions: TG allergic patients; number of positive responses
[6] = system: PBMCs from TG allergic donors; assay: IFNg ELISPOT of TG extract-expanded PBMCs (single peptides); format: cell-based, human; conditions: for Total response IFNg Events: number of positive response events to the 15-mer peptide
[7] = IL-5, number of positive response events
[8] = T cell recognition in TG allergic patients
[9] = T cell recognition in TG allergic patients, number of response events
[10] = E+ / E− part of the cell, reactivity of the parent antigen
[11] = G+ / G− part of the cell, reactivity of the parent antigen
[12] = T cell recognition in TG allergic patients, number of positive responses
[13] = reactivity of the parent TG antigen, given per peptide
[14] = reactivity of the parent TG antigen, given per peptide, G− = not IgG reactive
[15] = number of positive response events to the 15-mer peptide
[16] = reactivity of the parent antigen
[17] = reactivity of the parent antigen, G+ = IgG reactive, G− = not

252 (SAPALRILRSFPSHS; Phleum pratense) [Peptide 252]
Total response IL-5 Events [1, 7]: 1
Total response IL-5 SFC ([1]; IL-5, total SFC): 97 SFC
Total response IL-5 SFC [1, 8]: 97 SFC
Total response IL-5 Events [1, 9]: 1
Total response IFNg SFC [2]: 143 SFC
Total response IFNg Events [2]: 1
Antibody reactvity IgE/IgG (IgE part) (human IgE; [10]): E+
Antibody reactivity IgE/IgG: IgE (human IgE): E+
Total response IFNg Events [3]: 1
Total response IFNg SFC [3]: 143 SFC
Antibody reactvity IgE/IgG (IgG part) (human IgG; [11]): G−
Antibody reactivity IgE/IgG: IgG (human IgG): G−

375 (EEAASTLPGLSSSTL; Phleum pratense) [Peptide 375]
Total response IL-5 Events [1, 9]: 0
Total response IFNg Events [2]: 0
Antibody reactivity IgE/IgG: IgE (human IgE): E−
Antibody reactivity IgE/IgG: IgG (human IgG): G+

882 (DVYPTVCLPMCVCVL; Phleum pratense) [Peptide 882]
Total response IFNg Events [4]: 0
Total response IL-5 Events [1, 12]: 0
Antibody reactvity IgE/IgG: IgE (human IgE; [13]): E−
Antibody reactvity IgE/IgG: IgG (human IgG; [14]): G−

26138 (KVINDRFGIVEGLMT; Phleum pratense) [Peptide 26138]
Total response IL-5 Events [1, 7]: 0
Total response IL-5 Events [1, 9]: 0
Total response IFNg SFC [2]: 37 SFC
Total response IFNg Events [2]: 1
Antibody reactvity IgE/IgG (IgE part) (human IgE; [10]): E+
Antibody reactivity IgE/IgG: IgE (human IgE): E+
Total response IFNg Events [3]: 1
Total response IFNg SFC [3]: 37 SFC
Antibody reactvity IgE/IgG (IgG part) (human IgG; [11]): G−
Antibody reactivity IgE/IgG: IgG (human IgG): G−

30285 (VFNDDIQGTASVVLA; Phleum pratense) [Peptide 30285]
Total response IL-5 Events [1, 7]: 1
Total response IL-5 SFC ([1]; IL-5, total SFC): 67 SFC
Total response IL-5 SFC [1, 8]: 67 SFC
Total response IL-5 Events [1, 9]: 1
Total response IFNg Events [2]: 0
Antibody reactvity IgE/IgG (IgE part) (human IgE; [10]): E+
Antibody reactivity IgE/IgG: IgE (human IgE): E+
Total response IFNg Events [3]: 0
Antibody reactvity IgE/IgG (IgG part) (human IgG; [11]): G−
Antibody reactivity IgE/IgG: IgG (human IgG): G−

82109 (GDLYIFESRAICKYA; Phleum pratense) [Peptide 82109]
Total response IFNg Events [5]: 0
Total response IL-5 SFC ([1]; 15-mer peptide): 290 SFC
Total response IL-5 Events ([1]; TG allergic patients, number of positive responses): 1
Total response IL-5 SFC ([1]; TG allergic patients, total spot-forming cells): 290 SFC
Total response IL-5 Events [1, 15]: 1
Antibody reactvity IgE/IgG (IgE part) (human IgE; IgE reactivity of the parent antigen): E−
Antibody reactvity IgE/IgG: IgE (human IgE; [16]): E−
Antibody reactvity IgE/IgG (IgG part) (human IgG; IgG reactivity of the parent antigen): G−
Antibody reactvity IgE/IgG: IgG (human IgG; [17]): G−
Total response IFNg Events [6]: 0

86231 (IMQLLRDNLTLWTSD; Phleum pratense) [Peptide 86231]
Total response IFNg SFC [4]: 73 SFC
Total response IFNg Events [4]: 1
Total response IL-5 Events [1, 12]: 0
Total response IL-5 Events [1, 15]: 0
Antibody reactvity IgE/IgG: IgE (human IgE; [13]): E−
Antibody reactvity IgE/IgG: IgE (human IgE; [16]): E−
Antibody reactvity IgE/IgG: IgG (human IgG; [14]): G−
Antibody reactvity IgE/IgG: IgG (human IgG; [17]): G−
Total response IFNg SFC ([6]; 15-mer peptide): 73 SFC
Total response IFNg Events [6]: 1
